Experimental data reported in US9499493B2, “2,4-pyrimidinediamine compounds and their uses” (Rigel Pharmaceuticals, Inc., priority 2002, dated 2016).
pIC50: −log10 of the molar value.

The compounds below were run on cultured human mast cells (CHMC) (assay: CHMC low cell density IgE activation: tryptase assay). Details: Homo sapiens, Mast cell, anti-IgE.
Assay type: cell-based
Description: Pellet CHMC cells (980 rpm, 10 min) and resuspend in pre-warmed MT. Add 65 ul of cells to each 96-well plate. Depending on the degranulation activity for each particular CHMC donor, load 1000-1500 cells/well. Mix four times followed by a 1 hr incubation at 37° C. […] Stimulate cells by adding 25 ul of 6× anti-IgE solution to the appropriate plates. Add 25 ul MT to un-stimulated control wells. Mix twice following addition of the anti-IgE. Incubate at 37° C. for 30 minutes. […] Spin plates at 1000 rpm for 10 min to pellet cells. Transfer 25 ul of supernatant to a 96-well black bottom plate and add 100 ul of freshly diluted tryptase substrate solution to each well. Incubate plates at room temperature for 30 min.

| pIC50 | Compound |
| --- | --- |
| < 5.00 | O=C(O)Cc1cccc(Nc2ncc(F)c(Nc3cccc(CC(=O)O)c3)n2)c1 [R935117] |

Same assay, conditions: anti-IgE

| Compound | pIC50 |
| --- | --- |
| Fc1cnc(Cl)nc1Nc1ccc(Cl)nc1 [Compound R920400] | < 5.00 |
| Cc1ccnc(Nc2nc(Cl)ncc2F)c1 [Compound R920401] | < 5.00 |
| Fc1cnc(Cl)nc1Nc1cccc(OC(F)(F)F)c1 [Compound R920402] | < 5.00 |
| Fc1cnc(Cl)nc1Nc1ccc2c(c1)OC(F)(F)O2 [Compound R920403] | < 5.00 |
| Fc1cnc(Cl)nc1Nc1ccc2ncccc2c1 [Compound R920409] | < 5.00 |
| CCOC(=O)C=C1NN=C(c2cccc(Nc3nc(Cl)ncc3F)c2)O1 [Compound R926873] | < 5.00 |
| Fc1cnc(Cl)nc1Nc1ccc(OC(F)(F)F)cc1 [Compound R926875] | < 5.00 |
| Fc1cnc(Cl)nc1Nc1ccc(C(F)(F)F)cc1 [Compound R926876] | < 5.00 |
| Fc1cnc(Cl)nc1Nc1ccc(Cl)c(C(F)(F)F)c1 [Compound R926877] | < 5.00 |
| COc1ccc(Nc2nc(Cl)ncc2F)cn1 [Compound R926878] | < 5.00 |
| Fc1ccc(Nc2nc(Cl)ncc2F)cc1F [Compound R926882] | < 5.00 |
| Fc1cnc(Cl)nc1Nc1ccc(Cl)c(Cl)c1 [Compound R926884] | < 5.00 |
| Cc1cccc(Nc2nc(Cl)ncc2F)n1 [Compound R926888] | < 5.00 |
| Fc1cnc(Cl)nc1Nc1ccc2cn[nH]c2c1 [Compound R935260] | < 5.00 |
| Fc1cnc(Cl)nc1Nn1cccc1 [Compound R935275] | < 5.00 |
| COc1ccc(Nc2nc(Cl)ncc2F)cc1CN1CCOCC1 [Compound R940313] | < 5.00 |
| CC1(C)CN(c2cccc[n+]2[O-])c2cc(Nc3nc(Cl)ncc3F)ccc2O1 [Compound R940328] | < 5.00 |
| CC1(C)CN(c2ccccn2)c2cc(Nc3nc(Cl)ncc3F)ccc2O1 [Compound R940336] | < 5.00 |
| CC1(C)Oc2cc(Nc3nc(Cl)ncc3F)cnc2NC1=O [Compound R940344] | < 5.00 |
| CN(C)C(=O)COc1cccc(Nc2ncc(F)c(Nc3ccc4c(c3)NCCO4)n2)c1 [R909290, N2-[3-(N,N-Dimethylaminocarbonylmethyleneoxy)phenyl]-N4-(1,4-benzoxazin-6-yl)-5-fluoro-2,4-pyrimidinediamine] | 6.65 |
| CNC(=O)COc1cccc(Nc2ncc(F)c(Nc3ccc4c(c3)N(C(=N)N)CCO4)n2)c1 [R909292, N4-(4N-Carboxamidino-1,4-benzoxazin-6-yl)-5-fluoro-N2-[3-(N-methylamino)carbonylmethyleneoxyphenyl]-2,4-pyrimidinediamine] | 5.93 |
| C[C@H](Nc1ncc(F)c(N[C@@H](C)[C@H](O)c2ccccc2)n1)[C@H](O)c1ccccc1 [R925767, N2,N4-Bis[(2R)-hydroxy-(1S)-methyl-2-phenylethyl]-5-fluoro-2,4-pyrimidinediamine] | 5.00 |
| Fc1cnc(NCc2ccc3c(c2)OCO3)nc1NCc1ccc2c(c1)OCO2 [R925770, N2,N4-Bis(piperonyl)-5-fluoro-2,4-pyrimidineamine] | < 5.00 |
| Oc1cccc(Nc2ncc(F)c(Nc3ccc4c(c3)OCCO4)n2)c1 [R926210, N4-(3,4-Ethylenedioxyphenyl)-5-fluoro-N2-(3-hydroxyphenyl)-2,4-pyrimidinediamine] | 6.03 |
| O=C(O)COc1ccc(Nc2ncc(F)c(Nc3ccc4c(c3)OCCO4)n2)cc1 [R926238, N2-(4-Carboxymethyleneoxyphenyl)-N4-(3,4-ethylenedioxyphenyl)-5-fluoro-2,4-pyrimidinediamine] | < 5.00 |
| Cc1cc(Nc2ncc(F)c(Nc3ccc(O)c(C)c3)n2)ccc1O [R926469, N2,N4′-Bis(4-hydroxy-3-methylphenyl)-5-fluoro-2,4-pyrimidinediamine] | < 5.00 |
| O=C(O)COc1cccc(Nc2ncc(F)c(Nc3ccc4c(c3)OCCO4)n2)c1 [R926483, N2-(3-Carboxymethyleneoxyphenyl)-N4-(3,4-ethylenedioxyphenyl)-5-fluoro-2,4-pyrimidinediamine] | < 5.00 |
| Oc1cccc(Nc2nc(Nc3ccc4oc(CN5CCNCC5)cc4c3)ncc2F)c1 [R926770, 5-Fluoro-N4-(3-hydroxyphenyl)-N2-[2-(N-piperazinomethylene)benzofuran-5-yl]-2,4-pyrimidinediamine] | 6.23 |

Continued, values first:

| pIC50 | Compound |
| --- | --- |
| 6.49 | COC(=O)C1Cc2cc(Nc3ncc(F)c(Nc4ccc(OCCO)nc4)n3)ccc2O1 (racemic) [R927025, (±)-N2-(2,3-Dihydro-2-methoxycarbonylbenzofuran-5-yl)-5-fluoro-N4-[2-(2-hydroxyethyleneoxy)pyridin-5-yl]-5-fluoro-2,4-pyrimidinediamine] |
| 6.47 | O=C(COc1cccc(Nc2ncc(F)c(Nc3cccc(O)c3)n2)c1)N1CCNCC1 [R926772, 5-Fluoro-N4-(3-hydroxyphenyl)-N2-[3-(N-piperazino)carbonylmethyleneoxyphenyl]-2,4-pyrimidinediamine] |
| 6.35 | CNC(=O)COc1cccc(Nc2ncc(F)c(Nc3ccc(C#N)c(C)c3)n2)c1 [R926851, N4-(4-Cyano-3-methylphenyl)-5-fluoro-N2-[3-(N-methylamino)carbonylmethyleneoxyphenyl]-2,4-pyrimidinediamine] |
| 5.71 | COc1cc(Nc2nc(Nc3cccc(O)c3)ncc2F)c(OC)cc1Cl [R926860, N4-(4-Chloro-2,5-dimethoxyphenyl)-5-fluoro-N2-(3-hydroxyphenyl)-2,4-primidinediamine] |
| 5.48 | CNC(=O)COc1cccc(Nc2ncc(F)c(Nc3cccc(-c4nnc(-c5ccccc5)o4)c3)n2)c1 [R926870, 5-Fluoro-N2-[3-(N-methylamino)carbonylmethyleneoxyphenyl]-N4-[3-(2-phenyl-1,3,4-oxadiazol-5-yl)phenyl]-2,4-pyrimidinediamine] |
| 5.67 | CNC(=O)COc1cccc(Nc2ncc(F)c(Nc3cccc(-c4nnc(-c5cccc(Cl)c5)o4)c3)n2)c1 [R926871, N4-[3-(2-(3-Chlorophenyl)-1,3,4-oxadiazol-5-yl)phenyl]-5-fluoro-N2-[3-(N-methylamino)carbonylmethyleneoxyphenyl]-2,4-pyrimidinediamine] |
| 6.27 | CNC(=O)COc1cccc(Nc2ncc(F)c(Nc3ccc4cc(C(=O)OC)[nH]c4c3)n2)c1 [R926904, 5-Fluoro-N2-[3-[(N-methylamino)carbonylmethyleneoxy]phenyl]-N4-[2-(methoxycarbonyl)-(1H)-indol-6-yl]-2,4-pyrimidinediamine] |
| 6.10 | CCOC(=O)C(C)(C)Oc1cccc(Nc2ncc(F)c(Nc3cccc(O)c3)n2)c1 [R926906, N2-[3-(Ethoxycarbonyl-1,1-dimethylmethyleneoxy)phenyl]-5-fluoro-N4-(3-hydroxyphenyl)-2,4-pyrimidinediamine] |
| 6.12 | CCOC(=O)C(C)(C)Oc1cccc(Nc2ncc(F)c(Nc3ccc4c(c3)OCCO4)n2)c1 [R926907, N2-[3-(Ethoxycarbonyl-1,1-dimethylmethyleneoxy)phenyl]-N4-(3,4-ethylenedioxyphenyl)-5-fluoro-2,4-pyrimidinediamine] |
| 6.23 | CCOC(=O)C(C)(C)Oc1cccc(Nc2ncc(F)c(Nc3ccc(C)c(O)c3)n2)c1 [R926908, N2-[3-(Ethoxycarbonyl-1,1-dimethylmethyleneoxy)phenyl]-5-fluoro-N4-(3-hydroxy-4-methylphenyl)-2,4-pyrimidinediamine] |
| 6.42 | CCOC(=O)C(C)(C)Oc1cccc(Nc2ncc(F)c(Nc3ccc4cc[nH]c4c3)n2)c1 [R926909, N2-[3-(Ethoxycarbonyl-1,1-dimethylmethyleneoxy)phenyl]-5-fluoro-N4-[(1H)-indol-6-yl]-2,4-pyrimidinediamine] |
| 6.51 | CNC(=O)COc1cccc(Nc2ncc(F)c(Nc3cccc(SC(F)(F)F)c3)n2)c1 [R926925, 5-Fluoro-N2-[3-[(N-methylamino)carbonylmethyleneoxy]phenyl]-N4-(3-trifluoromethylthiophenyl)-2,4-pyrimidinediamine] |
| 5.38 | CCOC(=O)C1CCN(C(=O)c2cccc(Nc3nc(Nc4cccc(OCC(=O)NC)c4)ncc3F)c2)CC1 [R926941, N4-[3-[[4-(Ethoxycarbonyl)piperidino]carbonyl]phenyl]-5-fluoro-N2-[3-[(N-methylamino)carbonylmethyleneoxy]phenyl]-2,4-pyrimidinediamine] |
| 6.62 | CC(C)(CO)c1ccc(Nc2ncc(F)c(Nc3cccc(O)c3)n2)cc1 [R935153, 5-Fluoro-N2-[4-(2-hydroxy-1,1-dimethylethyl)phenyl]-N4-(3-hydroxyphenyl)-2,4-pyrimidinediamine] |
| 5.53 | CC(C)Oc1ccc(Nc2ncc(F)c(Nc3ccc4[nH]ncc4c3)n2)cc1 [R935266, 5-Fluoro-N4-(indazoline-5-yl)-N2-(4-isopropoxyphenyl)-2,4-pyrimidinediamine] |
| 5.61 | Fc1cnc(Nc2ccc3c(c2)OCCO3)nc1Nc1ccc2[nH]ncc2c1 [R935267, N2-(3,4-Ethyelenedioxyphenyl)-5-fluoro-N4-(indazoline-5-yl)-2,4-pyrimidinediamine] |
| 5.98 | Oc1cccc(Nc2ncc(F)c(Nc3ccc4[nH]ncc4c3)n2)c1 [R935268, 5-Fluoro-N2-(3-hydroxyphenyl)-N4-(indazoline-5-yl)-2,4-pyrimidinediamine] |
| 5.77 | COC(=O)COc1cccc(Nc2ncc(F)c(Nc3ccc4[nH]ncc4c3)n2)c1 [R935269, 5-Fluoro-N4-(indazoline-5-yl)-N2-[3-(methoxycarbonylmethyleneoxy)phenyl]-2,4-pyrimidinediamine] |
| 6.60 | CC(C)Oc1ccc(Nc2nc(Nc3ccc4nn(C)cc4c3)ncc2F)cc1 [R935298, 5-Fluoro-N4-(4-isopropoxyphenyl)-N2-(2-methyl-indazoline-5-yl)-2,4-pyrimidinediamine] |
